From patent EP0365210A1, “Hydroxamic acid derivatives” (KYOWA HAKKO KOGYO CO., LTD., priority 1988, dated 1990)

Each compound was assayed against T1, leucocyte 5-lipoxygenase (Rattus norvegicus, UniProt P12527) (assay: Inhibitory activity against leucocyte 5-lipoxygenase (5-HETE formation by HPLC, RBL-1 cells as enzyme source)). Conditions: rat basophilic leukemia cells (RBL-1) as source of 5-lipoxygenase; arachidonic acid substrate; 37°C; pH 7.4.
T1 construct: rat basophilic leukemia cells (RBL-1, ATCC No. CRL 1378) were used as the source of 5-lipoxygenase; host or cells: RBL-1 rat basophilic leukemia cells
T1 sequence (P12527 1-673): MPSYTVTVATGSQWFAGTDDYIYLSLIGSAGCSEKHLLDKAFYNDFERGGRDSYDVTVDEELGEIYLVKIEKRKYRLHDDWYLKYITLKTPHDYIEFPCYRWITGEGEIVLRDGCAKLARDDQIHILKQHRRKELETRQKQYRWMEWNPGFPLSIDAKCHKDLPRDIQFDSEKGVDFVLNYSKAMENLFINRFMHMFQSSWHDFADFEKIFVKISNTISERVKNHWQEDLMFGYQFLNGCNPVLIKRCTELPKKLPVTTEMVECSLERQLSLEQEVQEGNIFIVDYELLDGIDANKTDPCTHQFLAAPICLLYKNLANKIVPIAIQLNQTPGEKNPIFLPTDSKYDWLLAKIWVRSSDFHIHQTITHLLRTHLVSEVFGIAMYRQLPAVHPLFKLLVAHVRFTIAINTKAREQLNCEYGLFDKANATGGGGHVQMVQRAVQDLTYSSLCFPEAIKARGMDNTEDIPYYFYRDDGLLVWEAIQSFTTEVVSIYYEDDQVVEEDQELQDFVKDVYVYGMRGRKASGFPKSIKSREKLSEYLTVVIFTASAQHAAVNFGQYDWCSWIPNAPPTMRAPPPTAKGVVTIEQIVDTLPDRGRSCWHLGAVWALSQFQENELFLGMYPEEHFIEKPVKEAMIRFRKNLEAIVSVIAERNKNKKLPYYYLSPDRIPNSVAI
Format: biochemical
Experimental: a) Method for determining the inhibitory activity against leucocyte 5-lipoxygenase:
Lipoxygenase activity was determined by a modification of the method of B.A. Jakschik et al. [Biochem. Biophys. Res. Commun., 95, 103 (1980)]. That is, rat basophilic leukemia cells (RBL-1, ATCC No. CRL 1378) were used as the source of 5-lipoxygenase. The cells were contacted with a test compound in 60 µl of 0.17 M Trishydrochloride buffer (pH 7.4) containing […] calcium chloride, 3.3 mM adenosine triphosphate and 1 mM glutathione at 37°C for 5 minutes. Then,-50 µl of 60 µM arachidonic acid was added to the reaction mixture and the mixture was allowed to stand at 37° C for 5 minutes. To the mixture were added 200 µl of methanol and 13-hydroxylinoleic acid as the internal standard, followed by thorough shaking. The mixture was allowed to stand at -20 C for 30 minutes and then centrifuged at 12000 r.p.m. for 10 minutes. After the supernatant was evaporated to dryness in a stream of nitrogen, 200 µl of 75% aqueous methanol was added to the residue. The resulting solution (100 µl) was subjected to high performance liquid chromatography to quantitatively determine 5-HETE (5-hydroxyeicosatetraenoic acid). The absorption at 234 nm was measured with a UV absorption monitor and the amount of 5-HETE produced was determined from the peak area corrected by the peak of the internal standard. The test was carried out using the test compound at various concentrations and the concentration that inhibits 50% enzyme activity was determined as the inhibitory activity.
`CCCCCCCCCCCC(=O)N(O)CCCCCCCN1C(=O)CCC1=O` [Compound 1] gave an IC50 of 20 nM. In the case of `CCCCCCCCCCCN(O)C(=O)CCCCCN1C(=O)CCC1=O` [Compound 2], the IC50 is reported as 20 nM. `CCCCCCCCCCCC(=O)N(O)CCCN1C(=O)CCC1=O` [Compound 3] gave an IC50 of 20 nM. In the case of `CCCCCCCCCCCC(=O)N(O)CCCCCN1C(=O)c2ccccc2C1=O` [Compound 4], the IC50 is reported as 40 nM. With `CCCCCCCCCCCC(=O)N(O)CCCCCN1C(=O)CCCC1=O` [Compound 5] the IC50 was 36 nM. `CCCCCCCCCCCC(=O)N(O)CCCCCN1CCCC1=O` [Compound 6] gave an IC50 of 25 nM. With `CCCCCCCCCCCN(O)C(=O)CCC(=O)OC` [Compound 7] the IC50 was 38 nM. Work on `CCCCCCCCCCCN(O)C(C)=O` [Compound 10] yielded an IC50 of 34 nM. With `CCCCCCCCCCCN(O)C(=O)CCC` [Compound 11] the IC50 was 44 nM. In the case of `CCCCCCCCCCCN(O)C(=O)c1ccccc1` [Compound 12], the IC50 is reported as 300 nM.
